Test results published in PubChem BioAssay (NCI).
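Results reflect a 48-hour exposure of cells in 96-well plates to compound at five concentrations. TGI: total growth inhibition.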

What was measured:
Experiment in all cases: NCI-60 cell line screen, 48 h
[1] = test system: SNB-75 CNS
[2] = test system: HT29 colon
[3] = test system: A549 NSCLC
[4] = test system: SK-MEL-5 melanoma
[5] = test system: ACHN renal
[6] = test system: CCRF-CEM leukemia
[7] = test system: RPMI-8226 leukemia
[8] = test system: K-562 leukemia
[9] = test system: EKVX NSCLC
[10] = test system: BT-549 breast
[11] = test system: HCT-116 colon
[12] = test system: HCT-15 colon
[13] = test system: A498 renal
[14] = test system: IGROV1 ovarian
[15] = test system: HS 578T breast
[16] = test system: OVCAR-4 ovarian
[17] = test system: SK-MEL-28 melanoma
[18] = test system: SF-539 CNS
[19] = test system: U251 CNS
[20] = test system: UACC-62 melanoma
[21] = test system: UACC-257 melanoma
[22] = test system: MCF7 breast
[23] = test system: UO-31 renal
[24] = test system: COLO 205 colon
[25] = test system: NCI-H522 lung
[26] = test system: HL-60(TB) leukemia
[27] = test system: PC-3 prostate
[28] = test system: HOP-92 NSCLC
[29] = test system: OVCAR-8 ovarian
[30] = test system: T-47D breast
[31] = test system: M14 melanoma
[32] = test system: HOP-62 NSCLC
[33] = test system: 786-0 renal
[34] = test system: OVCAR-3 ovarian
[35] = test system: SNB-19 CNS
[36] = test system: OVCAR-5 ovarian
[37] = test system: SF-268 CNS
[38] = test system: MOLT-4 leukemia
[39] = test system: SK-MEL-2 melanoma
[40] = test system: SK-OV-3 ovarian
[41] = test system: SW-620 colon
[42] = test system: NCI-H460 lung
[43] = test system: TK-10 renal
[44] = test system: MDA-MB-435
[45] = test system: DU-145 prostate
[46] = test system: MALME-3M melanoma
[47] = test system: LOX IMVI melanoma
[48] = test system: HCC-2998 colon
[49] = test system: MDA-MB-231 breast
[50] = test system: SN12C renal
[51] = test system: NCI-H23 lung
[52] = test system: NCI/ADR-RES ovarian
[53] = test system: NCI-H226 lung
[54] = test system: RXF 393 renal
[55] = test system: CAKI-1 renal
[56] = test system: KM12 colon
[57] = test system: SF-295 CNS

Measured: TGI

CC1=NOC(C)(O)/C1=N/O (configuration not stated)
> 100 µM: all assays above
